Values after ≈ are worked out from the molar mass of the structure shown. Structures can show the parent of a compound that is named as a salt.
Experiments:
CCC-ESF cells = format: cell-based, human; settings: 30 min pre-incubation with inhibitor, vs. control
Procedure: (§1) Endocytosis mechanisms were assessed using cellular uptake assays in the presence of chemicals known to inhibit specific endocytosis pathways. Cells were incubated with CPZ, FLP, GNT, CCD, DMA, NaN3, or MS (at […], respectively) for 30 min at 37°C. After exposure to these inhibitors, 200 µL of C6-labeled NLCs was added to each well and incubated for 30 min. After the incubation, cells were prepared for flow cytometry as described earlier and the data for at least 20,000 cells were acquired. The cells treated with C6-labeled NLCs alone were considered as the control cells.

HaCaT cells = experiment: Endocytic pathway: uptake of C6-labeled NLCs in presence of endocytosis inhibitors; format: cell-based, human; settings: 30 min pre-incubation with inhibitor, vs. control
Procedure: as §1

[1] = Aqueous solubility in the release medium; format: physicochemical; settings: normal saline containing 20% PEG 400
rats = tested on: rats; design: method as in ref 5 = [5]; 5. Guan YZ Shi YB Wang H Summary on the advanced research of lappaconite hydrobromide Theory Pr Chin Med 2005 15 1838 1840; settings: cited from earlier work
mice = tested on: mice; design: method as in ref 5 = [5]; 5. Guan YZ Shi YB Wang H Summary on the advanced research of lappaconite hydrobromide Theory Pr Chin Med 2005 15 1838 1840; settings: cited from earlier work
[2] = design: method as in ref 6 = [6]; 6. Liang ZF Lyu YP Yuan W Liu YL Zhu XC Dose-effect relationship of lappaconitine Chin Pharmacol Bull 1993 9 146; settings: per os; cited from earlier work

Compound | effect on internalization/uptake of C6-labeled NLCs (CCC-ESF cells) | also measured
C=C1[C@@H](C)[C@H]2[C@H](Cc3ccccc3)NC(=O)[C@]23[C@H](OC(C)=O)/C=C/[C@@](C)(O)C(=O)[C@@H](C)C/C=C/[C@H]3[C@@H]1O [CCD, cytochalasin D] | significantly inhibited | –
CN(C)CCCN1c2ccccc2Sc2ccc(Cl)cc21 [CPZ, chlorpromazine] | did not significantly affect | –
CN(C)c1nc(N)c(C(=O)NC(=N)N)nc1Cl [DMA, 5-(N,N-dimethyl)-amiloride hydrochloride] | did not significantly affect | –
CCCCC[C@@H](O)[C@H]1C(=O)O[C@H](C)[C@@H](O)/C=C/C=C/C=C/C=C/C=C(\C)[C@@H](O)C[C@H](O)C[C@H](O)C[C@H](O)C[C@H](O)C[C@H](O)C[C@@H]1O [FLP, filipin III] | significantly inhibited | effect on uptake of C6-labeled NLCs (average fluorescence intensity) (HaCaT cells): significantly reduced
O=c1c(-c2ccc(O)cc2)coc2cc(O)cc(O)c12 [GNT, genistein] | did not significantly affect | –
CCN1C[C@]2(OC(=O)c3ccccc3NC(C)=O)CC[C@H](OC)[C@@]34[C@@H]2C[C@@H]([C@@H]13)[C@@]1(O)C[C@H](OC)[C@H]2C[C@@H]4[C@]1(O)[C@H]2OC [LA, lappaconitine] | – | aqueous solubility in the medium [1]: 849.79 ± 36.95 µg/mL (≈ 1450 µM); oral LD50 (rats): 20 mg/kg; oral LD50 (mice): 32.4 mg/kg; certain safety factor (CSF) [2]: 1.01; standard safety margin (SSM) [2]: 1.0%
[N-]=[N+]=[N-].[Na+] [NaN3, sodium azide] | did not significantly affect | –
CCN1C[C@]2(OC(=O)c3ccccc3NC(C)=O)CC[C@H](OC)C34C1C(O)(C[C@@H]32)[C@@]1(O)C[C@H](OC)[C@H]2C[C@@H]4[C@]1(O)[C@H]2OC [RAN, ranaconitine] | – | aqueous solubility in the medium [1]: 582.06 ± 16.27 µg/mL (≈ 969 µM)
monensin sodium [MS] | did not significantly affect | –

Reference: PMC4496826, “Nanostructured lipid carriers for percutaneous administration of alkaloids isolated from Aconitum sinomontanum” (Journal of Nanobiotechnology, 2015)
